Test results taken from publication PMC12155096 (International Journal of Molecular Sciences, 2025).

Biological target: human CYP2D6 (Homo sapiens, UniProt P10635)
Assay: not given
Details: not given

human CYP2D6, sequence (P10635 whole entry): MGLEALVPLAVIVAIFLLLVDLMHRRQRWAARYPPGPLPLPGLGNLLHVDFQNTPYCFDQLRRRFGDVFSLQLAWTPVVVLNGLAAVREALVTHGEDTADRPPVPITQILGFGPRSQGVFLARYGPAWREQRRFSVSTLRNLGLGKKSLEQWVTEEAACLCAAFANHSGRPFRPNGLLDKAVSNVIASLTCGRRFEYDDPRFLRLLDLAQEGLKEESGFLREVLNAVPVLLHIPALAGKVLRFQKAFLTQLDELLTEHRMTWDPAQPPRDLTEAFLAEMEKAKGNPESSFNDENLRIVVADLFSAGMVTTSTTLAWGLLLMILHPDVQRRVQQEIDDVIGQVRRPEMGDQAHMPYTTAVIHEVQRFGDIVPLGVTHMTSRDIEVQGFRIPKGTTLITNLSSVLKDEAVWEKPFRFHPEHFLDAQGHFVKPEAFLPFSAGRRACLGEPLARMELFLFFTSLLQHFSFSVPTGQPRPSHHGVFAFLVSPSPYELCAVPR

Molecule	IC50 [µM]	CYP2D6 Efficacy	CYP2D6 IC50 (half-maximal inhibitory concentration)	CYP2D6 Efficacy (in parenthesis)
C=CCOC(=O)c1ccc(C(=O)OCC=C)c(C(=O)OCC=C)c1 [Triallyl trimellitate]	46.2	–	–	–
CCCC[P+](C)(CCCC)CCCC.COS(=O)(=O)[O-] [Tributylmethylphosphonium methyl sulfate]	0.24	–	–	–
CCC(COC(=O)c1cc(OC)c(OC)c(OC)c1)(c1ccccc1)N(C)C.O=C(O)/C=C\C(=O)O (centres unmarked) [Trimebutine maleate]	0.67	–	–	–
c1cc[c]([Bi]([c]2ccccc2)[c]2ccccc2)cc1 [Triphenylbismuth]	31.9	–	–	–
[Cl][Bi]([Cl])([c]1ccccc1)([c]1ccccc1)[c]1ccccc1 [Triphenylbismuthine dichloride]	7.15	–	–	–
CC(=O)[O][Sn]([c]1ccccc1)([c]1ccccc1)[c]1ccccc1 [Triphenyltin acetate]	0.81	–	–	–
Cl.FC(F)(F)c1cccc(C2=CCN(CCc3ccc4ccccc4c3)CC2)c1 [Xaliproden hydrochloride]	0.28	0.28 ± 0.18 (-100 ± 3) %	–	–
C[C@H]1CCC[C@H](O)CCCCCc2cc(O)cc(O)c2C(=O)O1 [Zearalanol]	57	–	–	–
Cimicifugoside	–	–	Inactive	–
GW473178E methyl benzene sulphonic acid	23.1	–	–	–
Pentaerythritol allyl ether	–	–	Inactive	–
Trimethylolpropane ethoxylate triacrylate	68.9	–	–	68.92 ± 8.79 (-43 ± 5) %

Biological target: T1, human CYP1A2 (Homo sapiens, UniProt P05177)
T1 sequence (P05177 1-516): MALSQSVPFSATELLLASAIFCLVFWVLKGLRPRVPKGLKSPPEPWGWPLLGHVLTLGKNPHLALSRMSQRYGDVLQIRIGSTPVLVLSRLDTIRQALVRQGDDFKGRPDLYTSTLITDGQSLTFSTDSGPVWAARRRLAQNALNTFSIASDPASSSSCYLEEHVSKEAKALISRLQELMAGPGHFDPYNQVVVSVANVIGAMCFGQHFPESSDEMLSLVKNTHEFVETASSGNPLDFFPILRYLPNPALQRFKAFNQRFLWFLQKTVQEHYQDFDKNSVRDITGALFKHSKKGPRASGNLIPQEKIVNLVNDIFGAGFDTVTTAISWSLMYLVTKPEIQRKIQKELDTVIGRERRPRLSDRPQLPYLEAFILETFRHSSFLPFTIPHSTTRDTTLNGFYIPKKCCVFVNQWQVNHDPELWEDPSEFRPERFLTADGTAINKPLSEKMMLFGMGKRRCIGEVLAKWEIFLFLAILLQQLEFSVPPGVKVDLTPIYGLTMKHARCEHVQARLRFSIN
Assay: not given
Details: not given

Molecule	IC50 [µM]	CYP1A2 IC50	CYP1A2 IC50 (half-maximal inhibitory concentration)	CYP1A2 Efficacy	CYP1A2 Efficacy (in parenthesis)
C=CCOC(=O)c1ccc(C(=O)OCC=C)c(C(=O)OCC=C)c1 [Triallyl trimellitate]	5.66	–	–	–	–
CCCC[P+](C)(CCCC)CCCC.COS(=O)(=O)[O-] [Tributylmethylphosphonium methyl sulfate]	–	Inactive	–	–	–
CCC(COC(=O)c1cc(OC)c(OC)c(OC)c1)(c1ccccc1)N(C)C.O=C(O)/C=C\C(=O)O (centres unmarked) [Trimebutine maleate]	–	–	Inactive	–	–
c1cc[c]([Bi]([c]2ccccc2)[c]2ccccc2)cc1 [Triphenylbismuth]	–	Inactive	–	–	–
[Cl][Bi]([Cl])([c]1ccccc1)([c]1ccccc1)[c]1ccccc1 [Triphenylbismuthine dichloride]	17.2	–	–	–	–
CC(=O)[O][Sn]([c]1ccccc1)([c]1ccccc1)[c]1ccccc1 [Triphenyltin acetate]	47.5	–	–	–	–
Cl.FC(F)(F)c1cccc(C2=CCN(CCc3ccc4ccccc4c3)CC2)c1 [Xaliproden hydrochloride]	28.6	–	–	28.62 ± 14.29 (-37 ± 3) %	–
C[C@H]1CCC[C@H](O)CCCCCc2cc(O)cc(O)c2C(=O)O1 [Zearalanol]	33.4	–	–	–	–
Cimicifugoside	–	–	Inactive	–	–
GW473178E methyl benzene sulphonic acid	–	–	Inactive	–	–
Pentaerythritol allyl ether	23.6	–	–	–	–
Trimethylolpropane ethoxylate triacrylate	54.5	–	–	–	54.51 ± 3.69 (-43 ± 8) %

Biological target: human CYP2C9 (Homo sapiens, UniProt P11712)
Sequence (P11712 whole entry): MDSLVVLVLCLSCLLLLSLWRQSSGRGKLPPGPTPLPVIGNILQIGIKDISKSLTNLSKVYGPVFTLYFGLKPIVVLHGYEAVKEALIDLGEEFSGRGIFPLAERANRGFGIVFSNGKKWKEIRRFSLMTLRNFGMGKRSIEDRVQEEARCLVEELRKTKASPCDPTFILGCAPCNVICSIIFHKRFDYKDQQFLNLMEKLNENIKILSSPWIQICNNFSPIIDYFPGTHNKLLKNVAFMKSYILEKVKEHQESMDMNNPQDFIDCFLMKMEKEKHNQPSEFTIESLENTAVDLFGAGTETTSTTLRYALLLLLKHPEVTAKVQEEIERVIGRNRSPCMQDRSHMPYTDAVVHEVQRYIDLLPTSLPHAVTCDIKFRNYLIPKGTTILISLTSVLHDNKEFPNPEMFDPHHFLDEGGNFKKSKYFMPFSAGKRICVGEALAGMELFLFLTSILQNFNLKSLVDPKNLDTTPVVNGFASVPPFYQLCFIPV
Assay: not given
Details: not given

Molecule	CYP2C9 IC50 (half-maximal inhibitory concentration)	IC50 [µM]	CYP2C9 IC50	CYP2C9 Efficacy	CYP2C9 Efficacy (in parenthesis)
CC(C)(Cc1c[nH]c2ccccc12)NCC(O)COc1ccccc1C#N (centres unmarked) [Bucindolol]	Inactive	–	–	–	–
C=CCOC(=O)c1ccc(C(=O)OCC=C)c(C(=O)OCC=C)c1 [Triallyl trimellitate]	–	0.33	–	–	–
CCCC[P+](C)(CCCC)CCCC.COS(=O)(=O)[O-] [Tributylmethylphosphonium methyl sulfate]	–	–	Inactive	–	–
CCC(COC(=O)c1cc(OC)c(OC)c(OC)c1)(c1ccccc1)N(C)C.O=C(O)/C=C\C(=O)O (centres unmarked) [Trimebutine maleate]	–	15.5	–	–	–
c1cc[c]([Bi]([c]2ccccc2)[c]2ccccc2)cc1 [Triphenylbismuth]	–	0.73	–	–	–
[Cl][Bi]([Cl])([c]1ccccc1)([c]1ccccc1)[c]1ccccc1 [Triphenylbismuthine dichloride]	–	0.88	–	–	–
CC(=O)[O][Sn]([c]1ccccc1)([c]1ccccc1)[c]1ccccc1 [Triphenyltin acetate]	–	1.36	–	–	–
Cl.FC(F)(F)c1cccc(C2=CCN(CCc3ccc4ccccc4c3)CC2)c1 [Xaliproden hydrochloride]	22.52 ± 6.28 (29 ± 5) µM	–	–	22.52 ± 6.28 (29 ± 5) %	–
C[C@H]1CCC[C@H](O)CCCCCc2cc(O)cc(O)c2C(=O)O1 [Zearalanol]	–	27.3	–	–	–
Cimicifugoside	–	41.1	–	–	–
GW473178E methyl benzene sulphonic acid	–	5.86	–	–	–
Pentaerythritol allyl ether	–	5.98	–	–	–
Trimethylolpropane ethoxylate triacrylate	–	22.4	–	–	22.42 ± 6.63 (-90 ± 14) %

Biological target: Photinus pyralis (firefly) luciferase (Photinus pyralis, UniProt P08659)
Sequence (P08659 whole entry): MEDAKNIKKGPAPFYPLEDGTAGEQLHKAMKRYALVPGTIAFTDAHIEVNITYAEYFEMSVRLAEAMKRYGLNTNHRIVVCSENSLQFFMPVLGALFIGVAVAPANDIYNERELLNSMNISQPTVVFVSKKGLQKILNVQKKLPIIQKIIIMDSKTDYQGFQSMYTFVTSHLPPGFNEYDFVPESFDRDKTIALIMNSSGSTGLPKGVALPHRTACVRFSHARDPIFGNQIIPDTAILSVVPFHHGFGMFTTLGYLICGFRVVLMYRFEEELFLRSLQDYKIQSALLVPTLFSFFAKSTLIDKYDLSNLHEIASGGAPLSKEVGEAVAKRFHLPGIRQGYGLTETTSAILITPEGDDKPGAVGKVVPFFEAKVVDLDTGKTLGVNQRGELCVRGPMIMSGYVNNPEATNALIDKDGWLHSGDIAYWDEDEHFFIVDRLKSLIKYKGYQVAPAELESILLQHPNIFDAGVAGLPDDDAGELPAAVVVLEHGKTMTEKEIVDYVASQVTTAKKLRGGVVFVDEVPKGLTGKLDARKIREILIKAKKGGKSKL
Assay: biochemical
Assay type: biochemical
Details: not given

Molecule	Luciferase IC50 (half-maximal inhibitory concentration)	Luciferase IC50
CC(C)(Cc1c[nH]c2ccccc12)NCC(O)COc1ccccc1C#N (centres unmarked) [Bucindolol]	Inactive	–
C=CCOC(=O)c1ccc(C(=O)OCC=C)c(C(=O)OCC=C)c1 [Triallyl trimellitate]	Inactive	–
CCCC[P+](C)(CCCC)CCCC.COS(=O)(=O)[O-] [Tributylmethylphosphonium methyl sulfate]	–	Inactive
CCC(COC(=O)c1cc(OC)c(OC)c(OC)c1)(c1ccccc1)N(C)C.O=C(O)/C=C\C(=O)O (centres unmarked) [Trimebutine maleate]	Inactive	–
c1cc[c]([Bi]([c]2ccccc2)[c]2ccccc2)cc1 [Triphenylbismuth]	–	Inactive
Cl.FC(F)(F)c1cccc(C2=CCN(CCc3ccc4ccccc4c3)CC2)c1 [Xaliproden hydrochloride]	Inactive	–
C[C@H]1CCC[C@H](O)CCCCCc2cc(O)cc(O)c2C(=O)O1 [Zearalanol]	Inactive	–
Cimicifugoside	Inactive	–
GW473178E methyl benzene sulphonic acid	Inactive	–
Pentaerythritol allyl ether	Inactive	–
Trimethylolpropane ethoxylate triacrylate	Inactive	–

Same assay, conditions: read-out: Luciferase IC50

Molecule	IC50 [µM]
[Cl][Bi]([Cl])([c]1ccccc1)([c]1ccccc1)[c]1ccccc1 [Triphenylbismuthine dichloride]	13.2
CC(=O)[O][Sn]([c]1ccccc1)([c]1ccccc1)[c]1ccccc1 [Triphenyltin acetate]	3.81

Biological target: human CYP2C19 (Homo sapiens, UniProt P33261)
Sequence (P33261 whole entry): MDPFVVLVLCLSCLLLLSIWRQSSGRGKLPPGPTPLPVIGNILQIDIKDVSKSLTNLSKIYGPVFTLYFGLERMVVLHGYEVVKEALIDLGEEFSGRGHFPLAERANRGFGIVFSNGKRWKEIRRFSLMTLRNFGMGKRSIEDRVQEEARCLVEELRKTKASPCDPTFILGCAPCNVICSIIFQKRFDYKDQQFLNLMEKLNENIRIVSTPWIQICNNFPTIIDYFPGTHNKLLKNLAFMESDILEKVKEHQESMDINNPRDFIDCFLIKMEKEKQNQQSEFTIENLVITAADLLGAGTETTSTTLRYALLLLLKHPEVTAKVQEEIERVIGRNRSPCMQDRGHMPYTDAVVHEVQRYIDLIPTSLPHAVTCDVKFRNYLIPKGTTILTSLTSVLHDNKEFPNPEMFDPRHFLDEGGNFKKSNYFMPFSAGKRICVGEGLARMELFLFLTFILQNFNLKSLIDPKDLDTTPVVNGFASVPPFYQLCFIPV
Assay: not given
Details: not given

Molecule	CYP2C19 IC50 (half-maximal inhibitory concentration)	IC50 [µM]	CYP2C19 Efficacy (in parenthesis)
CC(C)(Cc1c[nH]c2ccccc12)NCC(O)COc1ccccc1C#N (centres unmarked) [Bucindolol]	Inactive	–	–
C=CCOC(=O)c1ccc(C(=O)OCC=C)c(C(=O)OCC=C)c1 [Triallyl trimellitate]	–	0.15	–
CCCC[P+](C)(CCCC)CCCC.COS(=O)(=O)[O-] [Tributylmethylphosphonium methyl sulfate]	–	63.3	–
CCC(COC(=O)c1cc(OC)c(OC)c(OC)c1)(c1ccccc1)N(C)C.O=C(O)/C=C\C(=O)O (centres unmarked) [Trimebutine maleate]	–	30.3	–
c1cc[c]([Bi]([c]2ccccc2)[c]2ccccc2)cc1 [Triphenylbismuth]	–	0.17	–
[Cl][Bi]([Cl])([c]1ccccc1)([c]1ccccc1)[c]1ccccc1 [Triphenylbismuthine dichloride]	–	0.28	–
CC(=O)[O][Sn]([c]1ccccc1)([c]1ccccc1)[c]1ccccc1 [Triphenyltin acetate]	–	4.84	–
Cl.FC(F)(F)c1cccc(C2=CCN(CCc3ccc4ccccc4c3)CC2)c1 [Xaliproden hydrochloride]	Inactive	–	–
C[C@H]1CCC[C@H](O)CCCCCc2cc(O)cc(O)c2C(=O)O1 [Zearalanol]	–	19.5	–
Cimicifugoside	Inactive	–	–
GW473178E methyl benzene sulphonic acid	–	46.9	–
Pentaerythritol allyl ether	–	0.83	–
Trimethylolpropane ethoxylate triacrylate	–	20.5	20.46 ± 7.7 (-131 ± 32) %

Biological target: T1, human CYP1A2
Assay: biochemical
Details: not given

Molecule	IC50 [µM]
CC(C)(Cc1c[nH]c2ccccc12)NCC(O)COc1ccccc1C#N (centres unmarked) [Bucindolol]	29.2 ± 2.38

Biological target: CYP3A4 (Homo sapiens, UniProt P08684)
Sequence (P08684 whole entry): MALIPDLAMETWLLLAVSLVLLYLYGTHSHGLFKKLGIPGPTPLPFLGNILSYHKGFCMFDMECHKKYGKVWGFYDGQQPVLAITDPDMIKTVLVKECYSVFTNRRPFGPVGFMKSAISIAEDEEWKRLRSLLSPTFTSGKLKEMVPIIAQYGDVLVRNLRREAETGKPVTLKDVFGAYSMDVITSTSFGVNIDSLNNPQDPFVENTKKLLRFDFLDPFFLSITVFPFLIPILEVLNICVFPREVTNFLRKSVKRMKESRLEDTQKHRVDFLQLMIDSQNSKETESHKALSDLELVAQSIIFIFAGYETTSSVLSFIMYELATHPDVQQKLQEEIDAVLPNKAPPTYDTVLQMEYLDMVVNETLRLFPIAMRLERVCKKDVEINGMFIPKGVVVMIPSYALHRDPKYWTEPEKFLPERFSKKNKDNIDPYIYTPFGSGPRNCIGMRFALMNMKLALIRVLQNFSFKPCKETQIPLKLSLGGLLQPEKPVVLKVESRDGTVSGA
Assay: not given
Details: not given

Molecule	CYP3A4 IC50 (half-maximal inhibitory concentration)	IC50 [µM]	CYP3A4 IC50	AC50 [µM]	CYP3A4 Efficacy (in parenthesis)
CC(C)(Cc1c[nH]c2ccccc12)NCC(O)COc1ccccc1C#N (centres unmarked) [Bucindolol]	Inactive	–	–	–	–
C=CCOC(=O)c1ccc(C(=O)OCC=C)c(C(=O)OCC=C)c1 [Triallyl trimellitate]	–	1.5	–	–	–
CCCC[P+](C)(CCCC)CCCC.COS(=O)(=O)[O-] [Tributylmethylphosphonium methyl sulfate]	–	–	Inactive	–	–
CCC(COC(=O)c1cc(OC)c(OC)c(OC)c1)(c1ccccc1)N(C)C.O=C(O)/C=C\C(=O)O (centres unmarked) [Trimebutine maleate]	–	4.07	–	–	–
c1cc[c]([Bi]([c]2ccccc2)[c]2ccccc2)cc1 [Triphenylbismuth]	–	2.36	–	–	–
[Cl][Bi]([Cl])([c]1ccccc1)([c]1ccccc1)[c]1ccccc1 [Triphenylbismuthine dichloride]	–	15	–	–	–
CC(=O)[O][Sn]([c]1ccccc1)([c]1ccccc1)[c]1ccccc1 [Triphenyltin acetate]	–	8.45	–	–	–
Cl.FC(F)(F)c1cccc(C2=CCN(CCc3ccc4ccccc4c3)CC2)c1 [Xaliproden hydrochloride]	19.77 ± 4.14 (120 ± 18) µM	–	–	19.8	–
C[C@H]1CCC[C@H](O)CCCCCc2cc(O)cc(O)c2C(=O)O1 [Zearalanol]	–	1	–	–	–
Cimicifugoside	–	0.89	–	–	–
GW473178E methyl benzene sulphonic acid	–	0.8	–	–	–
Pentaerythritol allyl ether	–	13	–	–	–
Trimethylolpropane ethoxylate triacrylate	–	0.9	–	–	0.9 ± 0.43 (-82 ± 18) %
